According to patent US20020082291A1, “NEW USE OF TAXOID DERIVATIVES” (priority 1999, published 2002):

Tested on: mammary adenocarcinoma MA17/A
Experiment: Oral antitumor efficacy and toxicity against early stage mammary adenocarcinoma MA17/A grafted subcutaneously in mice
Type: in vivo
Details: for log cell kill: tumor doubling time 1.3 days
Procedure: Formulation II: 0.2 mg/ml of the compound of formula (la) was mixed in a solution comprising 5% ethanol, 5% Polysorbate 80, and 90% of an aqueous 5% glucose solution.
15 female C3H/HeN mice, each weighing approximately 20 g, were each administered Formulation II orally in a dose of 20.6 mg.kg^−1 per administration per mouse,12.8, 8.4 and 5.5 each day for 5 days.
Animals: The animals subjected to the experiment, generally mice, were subcutaneously grafted bilaterally with 30 to 60 mg of a mammary tumor fragment (adenocarcinoma MA17/A) on day 0. The animals bearing tumors were mixed before being assigned to the various treatment and control groups. Chemotherapy generally began from 3 to 7 days after grafting, depending on the type of tumour, and the animals were observed every day. The different animal groups were weighed 3 or 4 times a week until the maximum weight loss was attained, and the groups were then weighed at least once a week until the end of the trial.
Efficacy: The efficacy of the new pharmaceutical form was evaluated by:
the tumor growth inhibitor (T/C)
The T/C value in percent is an indication of antitumor effectiveness: [formula]
According to NCI standards, a T/C<42% is the minimal level to declare activity. A T/C<10% is considered to indicate high antitumor activity and is the level used by NCI to justify further development (Decision Network-2 level, DN-2).
The T/C value can be converted to an arbitrary activity rating according to the NCI criteria:
and quantified by the log cell kill which is determined by the following formula:
log10 cells killed=T−C(days)/3.32×Td
in which T−C represents the time in days for the tumors of the treated group (T) and the tumors of the non-treated group (C) to reach a predetermined value (750 mg for example). This method is described in T. H. CORBETT et al., Cancer, 40, 2660-2680 (1977); F.M. SCHABEL et al., Cancer Drug Development, Part B. Methods in Cancer Research, 17, 3-51, New York Academic Press Inc. (1979), the disclosure of which is incorporated by reference herein. A product is considered to be active if log10 cells killed is greater than or equal to 0.7. A product is considered to be very active if log10 cells killed is greater than 2.8.

[1] = p.o. 5.5 mg/kg/dose, days 3 to 7, total dose 27.5 mg/kg
[2] = p.o. 8.4 mg/kg/dose, days 3 to 7, total dose 42.0 mg/kg
[3] = p.o. 12.8 mg/kg/dose, days 3 to 7, total dose 64.0 mg/kg

Q: Which results are given for `CO[C@H]1C(=O)[C@]2(C)[C@@H](OC)C[C@H]3OC[C@@]3(OC(C)=O)[C@H]2[C@H](OC(=O)c2ccccc2)[C@]2(O)C[C@H](OC(=O)[C@H](O)[C@@H](NC(=O)OC(C)(C)C)c3ccccc3)C(C)=C1C2(C)C` [Product of formula IA, 4α-acetoxy-2α-benzoyloxy-5β,20-epoxy-1β-hydroxy-7β,10β-dimethoxy-9-oxo-11-taxen-13α-yl (2R, 3S)-3tert-butoxycarbonylamino-2-hydroxy-3-phenylpropionate]?
A: Comments [1]: Inactive; Drug death (days or death) [1]: 0/5; T-C [1]: 2.3 days; Time for median tumor to reach 750 mg [1]: 14.4 days; Average body weight change in % per mouse post last treatment (day) (p.o. 5.5 mg/kg/dose, days 3 to 7, total dose 27.5 mg/kg, day 8): +0.2(8) %; Median tumor weight in mg on day 12 (range) [1]: 271(107-432) mg; T/C in % day 12 [1]: 38%; log cell kill [1]: 0.5; Comments [2]: Active; Drug death (days or death) [2]: 0/5; T-C [2]: 6.1 days; Time for median tumor to reach 750 mg [2]: 18.2 days; Average body weight change in % per mouse post last treatment (day) (p.o. 8.4 mg/kg/dose, days 3 to 7, total dose 42.0 mg/kg, day 9): −11.0(9) %; Median tumor weight in mg on day 12 (range) [2]: 0(0-268) mg; T/C in % day 12 [2]: 0%; log cell kill [2]: 1.4; Comments [3]: HNTD; Drug death (days or death) [3]: 0/5; T-C [3]: 13.8 days; Time for median tumor to reach 750 mg [3]: 25.9 days; Average body weight change in % per mouse post last treatment (day) (p.o. 12.8 mg/kg/dose, days 3 to 7, total dose 64.0 mg/kg, day 10): −17.9(10) %; Median tumor weight in mg on day 12 (range) [3]: 0(0-0) mg; T/C in % day 12 [3]: 0%; log cell kill [3]: 3.2; Comments (p.o. 20.6 mg/kg/dose, days 3 to 7, total dose 103.0 mg/kg): Toxic; Drug death (days or death) (p.o. 0.2 ml, 20.6 mg/kg/dose, days 3 to 7, total dose 103.0 mg/kg, female C3H/HeN mice): 5/5(7,2d8,10,11)
